Measurements taken from patent US20110171300A1, “DELTA 9 TETRAHYDROCANNABINOL DERIVATIVES” ([…] LIMITED, priority 2007, published 2011).

Assays:
[1] = Stability to light and air at ambient temperature; format: physicochemical
[2] = air; cited from earlier work

Structure (SMILES) | Stability [1] | Stability at room temperature [2]
CCCCCc1cc2c(c(OS(=O)(=O)CCC)c1)[C@@H]1C=C(C)CC[C@H]1C(C)(C)O2 [Example 3, Δ9-THC n-propyl sulfonate] | Stable to light and air at ambient temperature | –
CCCCCc1cc(O)c2c(c1)OC(C)(C)[C@@H]1CCC(C)=C[C@@H]21 [Δ9-THC, Δ9-tetrahydrocannabinol] | – | relatively unstable
CCCCCc1cc2c(c(OS(=O)(=O)CCCCl)c1)[C@@H]1C=C(C)CC[C@H]1C(C)(C)O2 [Example 4, Δ9-THC 3-chloropropyl sulfonate] | Stable to light and air at ambient temperature | –
CCCCCc1cc2c(c(OS(=O)(=O)c3cccs3)c1)[C@@H]1C=C(C)CC[C@H]1C(C)(C)O2 [Example 2, Δ9-THC 2-thiophene sulfonate] | Stable to light and air at ambient temperature | –
CCCCCc1cc2c(c(OS(=O)(=O)C[C@]34CCC(CC3=O)C4(C)C)c1)[C@@H]1C=C(C)CC[C@H]1C(C)(C)O2 [Example 1, Δ9-THC (1S)-(+)-Camphorsulfonate] | Stable to light and air at ambient temperature | –
